# Biological target: T1, Mineralocorticoid receptor (Rattus norvegicus, UniProt P22199)
# T1 sequence (P22199 whole entry): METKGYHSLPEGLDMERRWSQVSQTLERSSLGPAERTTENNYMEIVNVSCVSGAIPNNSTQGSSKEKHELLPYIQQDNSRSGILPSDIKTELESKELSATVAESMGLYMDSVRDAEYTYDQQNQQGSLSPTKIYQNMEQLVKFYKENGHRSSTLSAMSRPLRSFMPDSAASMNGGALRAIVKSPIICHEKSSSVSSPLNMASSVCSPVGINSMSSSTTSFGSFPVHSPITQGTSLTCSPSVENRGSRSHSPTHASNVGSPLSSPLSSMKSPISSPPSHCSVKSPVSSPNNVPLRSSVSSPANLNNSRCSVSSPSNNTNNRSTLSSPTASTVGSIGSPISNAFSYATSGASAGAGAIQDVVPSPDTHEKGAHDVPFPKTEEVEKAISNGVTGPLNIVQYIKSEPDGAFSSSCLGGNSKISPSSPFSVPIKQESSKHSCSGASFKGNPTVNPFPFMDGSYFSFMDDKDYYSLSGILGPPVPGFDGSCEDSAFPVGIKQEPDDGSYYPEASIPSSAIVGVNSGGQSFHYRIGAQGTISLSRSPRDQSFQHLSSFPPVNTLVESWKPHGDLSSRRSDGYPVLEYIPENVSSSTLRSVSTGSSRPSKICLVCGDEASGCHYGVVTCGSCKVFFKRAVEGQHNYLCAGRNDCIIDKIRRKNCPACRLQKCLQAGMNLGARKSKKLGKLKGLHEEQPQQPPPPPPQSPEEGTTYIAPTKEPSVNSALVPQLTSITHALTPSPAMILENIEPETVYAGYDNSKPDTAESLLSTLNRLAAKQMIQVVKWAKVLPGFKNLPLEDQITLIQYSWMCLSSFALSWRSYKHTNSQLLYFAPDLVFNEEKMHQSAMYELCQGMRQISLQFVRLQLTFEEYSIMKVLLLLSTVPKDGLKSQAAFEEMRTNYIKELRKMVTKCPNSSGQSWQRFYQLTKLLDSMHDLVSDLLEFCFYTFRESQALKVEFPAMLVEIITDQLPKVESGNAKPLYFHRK
row,SMILES,IC50
1,"C[C@]12Cc3cnn(-c4ccc(F)cc4)c3C=C1CCC[C@@H]2[C@@H](O)c1ccc(F)cc1 [BMCL173354 benzo[f]indazole, 6]",> 5 µM
2,"C=CCC[C@H](O)[C@H]1CCCC2=Cc3c(cnn3-c3ccc(F)cc3)C[C@@]21C [(1S)-1-[(4aR,5S)-1-(4-fluorophenyl)-4a-methyl-1H,4H,4aH,5H,6H,7H,8H-cyclohexa[f]indazol-5-yl]pent-4-en-1-ol]",> 5 µM
3,"C[C@]12Cc3cnn(-c4ccc(F)cc4)c3C=C1CCC[C@@H]2[C@H](O)c1ccc(F)cc1 [BMCL173354 benzo[f]indazole, 7]",> 5 µM
4,"C[C@]12Cc3cnn(-c4ccc(F)cc4)c3C=C1CCC[C@@H]2[C@@H](O)c1ccccc1 [(R)-[(4aR,5S)-1-(4-fluorophenyl)-4a-methyl-1H,4H,4aH,5H,6H,7H,8H-cyclohexa[f]indazol-5-yl](phenyl)methanol]",> 5 µM

# Now from value to molecule:
row,IC50,SMILES
1,> 5 µM,"COc1cc([C@H](O)[C@H]2CCCC3=Cc4c(cnn4-c4ccc(F)cc4)C[C@@]32C)cc(F)c1F [(R)-[(4aR,5S)-1-(4-fluorophenyl)-4a-methyl-1H,4H,4aH,5H,6H,7H,8H-cyclohexa[f]indazol-5-yl](3,4-difluoro-5-methoxyphenyl)methanol]"
2,> 5 µM,"C[C@]12Cc3cnn(-c4ccc(F)cc4)c3C=C1CCC[C@@H]2[C@](C)(O)c1ccc(F)cc1 [(1S)-1-[(4aR,5S)-1-(4-fluorophenyl)-4a-methyl-1H,4H,4aH,5H,6H,7H,8H-cyclohexa[f]indazol-5-yl]-1-(4-fluorophenyl)ethan-1-ol]"

# Source: BindingDB's records for doi:10.1021/jm030585i (Merck Research Laboratories, 2004)
